Consider three compounds from PMC10812557, “Progressive Design of a Ranatuerin-2 Peptide from Amolops wuyiensis: Enhancement of Bioactivity and In Vivo Efficacy” (Antibiotics, 2023).

As a reminder, the IC50 is the concentration that gives 50% inhibition.

Experiment [1] deals with E. faecium (NTCC 12697). As to the kind of experiment: microbe, parasite or virus in culture. Format: cell-based. The source says: (§1) The MIC and MBC assays were used to assess the inhibitory activities of all 5 analogues of R2AW on the growth of planktonic microorganisms. The MIC is the lowest concentration that prevents the viable growth of bacteria. The MBC is the lowest concentration that results in bacterial death. Six microorganisms were used to detect the antimicrobial activity of peptides, including Gram-positive bacteria S. aureus (NCTC 10788), MRSA (NCTC 12493), Enterococcus faecalis (E. faecalis) (NCTC 12697), Gram-negative bacteria E. coli […], Klebsiella pneumoniae (K. pneumoniae) (ATCC 43816), and Pseudomonas aeruginosa (P. aeruginosa) (ATCC 9027). According to the assay described previously, the microorganisms were inoculated at 37 °C overnight and diluted to 5 × 10^5 CFU/mL after reaching the logarithmic growth period. The peptide stock solution at the concentration of 512 × 10^2 μM was prepared and diluted to 100 μM by a 2-fold dilution. One μL of each concentration of peptide solution was incubated with 99 μL of bacterial subculture in the 96-well plate for 18 h at 37 °C. The absorbance was determined at a wavelength of 550 nm using a Synergy HT plate reader (Bio Tek, Washington, DC, USA). […] As for those wells that were clearly visible, 20 μL of the solution was dropped onto the Mueller Hinton agar (MHA) dish and then incubated at 37 °C overnight. The lowest concentration with no colony growth was determined as the MBC.

Experiment [2] relates to MRSA (NCTC 12493). As to the kind of experiment: microbe, parasite or virus in culture. In kind it is cell-based. Particulars: MRSA (NCTC 12493).
Text: as §1

Experiment [3] concerns S. aureus (NCTC 10788). As to the kind of experiment: microbe, parasite or virus in culture. In kind it is cell-based.
Text: as §1

The subject of experiment [4] is E. coli (ATCC 8739). Format: cell-based.
Text: as §1

The test system of experiment [5] is K. pneumoniae (ATCC 43816). Format: cell-based.
Text: as §1

Experiment [6] has as its system P. aeruginosa (ATCC 9027). Format: cell-based.
Text: as §1

Experiment [7] deals with S. aureus (NCTC 10788). In kind it is cell-based, Staphylococcus aureus. How it is done: (§2) As a previous study described in detail, the ability of R2AW and its analogues to inhibit and eradicate the formation of biofilm was investigated. The MBIC is the lowest concentration which inhibits the formation of biofilm. The MBEC is the minimum concentration that eradicates biofilm. Six bacterial strains were used, as described above. Briefly, the bacteria were cultured and then diluted to 5 × 10^5 CFU/mL. In MBIC assays, 1 μL of each concentration of R2AW and its analogues (ranging from 512 × 10^2 μM to 100 μM) was mixed with 99 μL of diluted bacterial suspension in a 96-well plate for 16-20 h at 37 °C. As for MBEC assays, 100 μL of cultured bacteria were seeded in a 96-well plate and incubated on the shaking incubator at 37 °C overnight for biofilm formation. Subsequently, each well was rinsed twice with 100 μL sterile PBS to remove planktonic cells, and then replaced with 100 μL of each concentration (ranging from 512 μM to 1 μM) of peptides. After 24 h incubation, the biofilm was washed twice with 100 μL of PBS and fixed with methanol. Next, the same volume of 0.1% crystal violet solution (Sigma-Aldrich, Gillingham, UK) was added to each well to stain the biofilm. After that, 100 μL of 30% of acetic acid (Sigma-Aldrich, Gillingham, UK) was transferred to each well for dissolution. The solutions were transferred into a new 96-well plate and the absorbances of wells was monitored using a Synergy HT plate reader set to 595 nm.

In experiment [8] the test system is E. coli (ATCC 8739). Format: cell-based, Escherichia coli. How it is done: as §2
Experiment [9] has as its system K. pneumoniae (ATCC 43816). In kind it is cell-based, Klebsiella pneumoniae. The procedure:
as §2

In experiment [10] the test system is E. faecium (NTCC 12697). In kind it is cell-based. The procedure: as §2
Experiment [11] has as its system P. aeruginosa (ATCC 9027). Format: cell-based, Pseudomonas aeruginosa. How it is done:
as §2

A further experiment concerns H838. Format: cell-based, human. Particulars: 24 h. The procedure:
(§3) Five human cancer cell lines of non-small-cell lung cancer H838, human prostate carcinoma PC-3, human neuronal glioblastoma U251MG, human breast cancer cell MCF-7, and colorectal carcinoma HCT116 were used to detect the antiproliferative abilities of R2AW and its five analogues. According to the procedures in a previous article, cells (8000 cells/well) were seeded into the 96-well tissue culture plates and incubated at 37 °C with 5% CO2 overnight. The solutions of R2AW and its analogues at concentrations of 10^−4 M to 10^−9 M were prepared in the serum-free medium. Next, cells in each well were treated with 100 μL of each peptide solution for 24 h. Subsequently, 10 μL of 5 mg/mL MTT (3-(4, 5-Dimethylthiazol-2-yl-)-2, 5-Diphehyltetrazolium Bromide) was added to each well followed by 37 °C incubation for 2 h. After that, the liquid in each well was removed and 100 μL of DMSO was added to dissolve the purple formazan. The plate was placed on a shaking incubator for 10 min, and the absorbance was detected at 550 nm using a Synergy HT plate reader (Biotech, Minneapolis, MN, USA).

A further experiment relates to HCT116. Format: cell-based, human. Particulars: 24 h. How it is done: as §3
In the next experiment the test system is MCF-7. Format: cell-based, human. As to conditions: 24 h. How it is done: as §3
The subject of another experiment is PC-3. In kind it is cell-based, human. As to conditions: 24 h. The procedure: as §3
In a further experiment the test system is U251MG. In kind it is cell-based, human. Particulars: 24 h. How it is done:
as §3

Experiment [12] relates to MRSA (NCTC 12493). Format: cell-based, methicillin-resistant Staphylococcus aureus. As to conditions: NCTC 12493. The procedure:
as §2

Where two headings read alike, the source gives them in different places. Peptide text beside a SMILES is read from it.

As for `CSCC[C@H](NC(=O)[C@H](Cc1ccccc1)NC(=O)CN)C(=O)N[C@@H](CC(=O)O)C(=O)N[C@H](C(=O)N[C@@H](C)C(=O)N[C@@H](CCCCN)C(=O)N[C@@H](CC(N)=O)C(=O)N[C@H](C(=O)N[C@@H](C)C(=O)N[C@@H](CCCCN)C(=O)N[C@@H](CC(N)=O)C(=O)N[C@H](C(=O)N[C@@H](C)C(=O)N[C@@H](C)C(=O)N[C@H](C(=O)N[C@@H](CC(C)C)C(=O)N[C@@H](CC(C)C)C(=O)N[C@@H](CC(=O)O)C(=O)N[C@@H](CCCCN)C(=O)N[C@@H](CC(C)C)C(=O)N[C@@H](CCCCN)C(N)=O)[C@@H](C)O)C(C)C)C(C)C)[C@@H](C)O` [R2AW(1-22)-NH2] (H-GFMDTAKNVAKNVAATLLDKLK-NH2), the MBC in the experiment with E. faecium (NTCC 12697) [1] (NTCC 12697, 18 h) is 601 µg/mL; with MRSA (NCTC 12493) [2], 601 µg/mL; with S. aureus (NCTC 10788) [3] (NCTC 10788, 18 h), 150 µg/mL; in the experiment with E. coli (ATCC 8739) [4] (ATCC 8739, 18 h), 301 µg/mL; in [5] (ATCC 43816, 18 h), 601 µg/mL; in experiment [6] (ATCC 9027, 18 h) it was over 1202 µg/mL. In addition, the MIC was determined as 601 µg/mL with E. faecium (NTCC 12697) [1] (NTCC 12697, 18 h); 601 µg/mL in the experiment with MRSA (NCTC 12493) [2]; 150 µg/mL in the experiment with S. aureus (NCTC 10788) [3] (NCTC 10788, 18 h); 300 µg/mL in the experiment on E. coli (ATCC 8739) [4] (ATCC 8739, 18 h); 601 µg/mL in [5] (ATCC 43816, 18 h); 1202 µg/mL in [6] (ATCC 9027, 18 h). The MBEC in the experiment with S. aureus (NCTC 10788) [7] was over 512 µM; in the experiment on E. coli (ATCC 8739) [8], 512 µM; in experiment [9], 512/>512 µM; in the experiment on E. faecium (NTCC 12697) [10], over 512 µM; in [11] it was over 512 µM. In addition, the MBIC was 128 µM in the experiment on S. aureus (NCTC 10788) [7]; 256 µM with E. coli (ATCC 8739) [8]; 512/>512 µM in [9]; over 512 µM in the experiment with E. faecium (NTCC 12697) [10]; over 512 µM in experiment [11]. Besides, the IC50 in the experiment with H838 was 58.9 µM; with HCT116, 609 µM; with MCF-7 it was 374 µM; in the experiment with PC-3 it was 194 µM; with U251MG it was 516 µM.

On to `CC[C@H](C)[C@H](NC(=O)CN)C(=O)NCC(=O)N[C@@H](C)C(=O)N[C@H](C(=O)N[C@@H](CC(C)C)C(=O)N[C@@H](CCCCN)C(=O)N[C@H](C(=O)N[C@@H](CC(C)C)C(=O)N[C@H](C(=O)N[C@H](C(=O)NCC(=O)N[C@@H](CC(C)C)C(=O)N1CCC[C@H]1C(=O)N[C@@H](C)C(=O)N[C@@H](CC(C)C)C(=O)N[C@H](C(=O)N[C@@H](CO)C(=O)N[C@@H](Cc1c[nH]c2ccccc12)C(=O)N[C@H](C(=O)N[C@@H](CCCCN)C(=O)N[C@@H](CCCNC(=N)N)C(=O)N[C@@H](CCCCN)C(=O)N[C@@H](CCCNC(=N)N)C(=O)N[C@@H](CCC(N)=O)C(=O)N[C@@H](CCC(N)=O)C(N)=O)[C@@H](C)CC)[C@@H](C)CC)[C@@H](C)O)[C@@H](C)O)C(C)C)C(C)C` [Melittin, reference compound], for which the MBC stood at 2 µM in the experiment on E. faecium (NTCC 12697) [1] (E. faecium (NTCC 12697)); 2 µM in the experiment on MRSA (NCTC 12493) [2]; 2 µM with S. aureus (NCTC 10788) [3] (S. aureus (NCTC 10788)); 4 µM in the experiment on E. coli (ATCC 8739) [4] (E. coli (ATCC 8739)); 32 µM in experiment [5] (K. pneumoniae (ATCC 43816)); 32 µM in experiment [6] (P. aeruginosa (ATCC 9027)). Further, the MIC in the experiment with E. faecium (NTCC 12697) [1] (E. faecium (NTCC 12697)) turned out to be 2 µM; in experiment [5] (K. pneumoniae (ATCC 43816)), 32 µM.

`CSCC[C@H](NC(=O)[C@H](Cc1ccccc1)NC(=O)CN)C(=O)N[C@@H](CC(=O)O)C(=O)N[C@H](C(=O)N[C@@H](C)C(=O)N[C@@H](CCCCN)C(=O)N[C@@H](CC(N)=O)C(=O)N[C@H](C(=O)N[C@@H](C)C(=O)N[C@@H](CCCCN)C(=O)N[C@@H](CC(N)=O)C(=O)N[C@H](C(=O)N[C@@H](C)C(=O)N[C@@H](C)C(=O)N[C@H](C(=O)N[C@@H](CC(C)C)C(=O)N[C@@H](CC(C)C)C(=O)N[C@@H](CC(=O)O)C(=O)N[C@@H](CCCCN)C(=O)N[C@@H](CC(C)C)C(=O)N[C@@H](CCCCN)C(=O)O)[C@@H](C)O)C(C)C)C(C)C)[C@@H](C)O` [R2AW(1-22)] (H-GFMDTAKNVAKNVAATLLDKLK-OH): the MBC in the experiment on E. faecium (NTCC 12697) [1] (NTCC 12697, 18 h) is over 1202 µg/mL; in the experiment with MRSA (NCTC 12493) [2], over 1202 µg/mL; in the experiment with S. aureus (NCTC 10788) [3] (NCTC 10788, 18 h), over 1202 µg/mL; with E. coli (ATCC 8739) [4] (ATCC 8739, 18 h) it was over 1202 µg/mL; in experiment [5] (ATCC 43816, 18 h), over 1202 µg/mL; in experiment [6] (ATCC 9027, 18 h), over 1202 µg/mL. Moreover, the MIC with E. faecium (NTCC 12697) [1] (NTCC 12697, 18 h) is over 1203 µg/mL; in the experiment with MRSA (NCTC 12493) [2], over 1203 µg/mL; in the experiment with S. aureus (NCTC 10788) [3] (NCTC 10788, 18 h), over 1203 µg/mL; with E. coli (ATCC 8739) [4] (ATCC 8739, 18 h), over 1203 µg/mL; in [5] (ATCC 43816, 18 h) it was over 1203 µg/mL; in experiment [6] (ATCC 9027, 18 h), over 1203 µg/mL. The MBEC (in the experiment on S. aureus (NCTC 10788) [7]; with E. coli (ATCC 8739) [8]; with MRSA (NCTC 12493) [12]; in [9]; in the experiment with E. faecium (NTCC 12697) [10]; in experiment [11]) was over 512 µM throughout. Further, the MBIC (in the experiment on S. aureus (NCTC 10788) [7]; in the experiment on E. coli (ATCC 8739) [8]; in the experiment on MRSA (NCTC 12493) [12]; in experiment [9]; with E. faecium (NTCC 12697) [10]; in experiment [11]) was over 512 µM throughout. Moreover, the IC50 in the experiment on H838 worked out at 1420 µM; in the experiment with HCT116, 1120 µM; with MCF-7 it was 894 µM; in the experiment with PC-3, 1480 µM; in the experiment with U251MG, 1820 µM.
